According to patent US7361633B2, “Screening method and anti-tumor drug candidate obtained therefrom” (Ardana Bioscience Limited, priority 2002, dated 2008):
“Also recorded” adds a separate entry of the source. Square brackets hold non-standard residues; d marks the D form. Peptide text beside a SMILES is read from it. dPhe(4-Cl) = N[C@H](Cc1ccc(Cl)cc1)C(=O)O; d2Nal = N[C@H](Cc1ccc2ccccc2c1)C(=O)O; dCit = NC(=O)NCCC[C@@H](N)C(=O)O; d3Pal = N[C@H](Cc1cccnc1)C(=O)O; pGlu = O=C1CC[C@@H](C(=O)O)N1

Tests used:
[1] = system: PTX-sensitive/Gαi-dependent MAPK isoform activation; test: PTX-sensitive/Gαi-dependent MAPK isoform activation (data not shown); type: cell-based
[2] = system: androgen-resistant tumor cells; conditions: compared with androgen-dependent prostate cancers; Jungwirth et al; cited from earlier work
[3] = system: human JEG-3 choriocarcinoma cells; test: Anti-proliferative effect on JEG-3 cells, viable cell count after 5 days; type: cell-based; conditions: 5 days continuous treatment, trypan blue exclusion
Protocol: (§1) Low cell density JEG-3 cell subcultures were treated for 5 days continuously with the indicated doses of GnRH I (a), GnRH II (b), antagonist 135-18 (c) or antagonist 135-25 (d) added directly to Dulbecco's modified Eagles medium supplemented with 10% FCS, glutamine and penicillin/streptomycin. Ligands were replenished every 24 h. At the end of the stimulation period cells were removed from the growth plates with trypsin and mixed with trypan blue dye (enters non-viable cells). Only viable cells were therefore counted using a haemocytometer in quadruplicate for each ligand dose. The bars in each histogram represent the mean±s.e. mean of n=4 experiments.
(§2) Each cell type was plated at an initial minimal confluency (10-20%) to allow for 5 days of normal continual cell growth that would not result in 100% cell confluency by day 5. Each ligand was incubated, in triplicate for every experimental concentration, with the cell monolayers for five days with replacement of the ligand every 12 h. At the end of the stimulation period the number of viable cells was estimated by their capacity to prevent uptake of Trypan Blue stain.

[4] = system: HEK293 cells stably expressing the Type I GnRHR (SCL60); test: Anti-proliferative effect on SCL60 cells, viable cell count after 5 days; type: cell-based, human; conditions: 5 days continuous treatment, trypan blue exclusion
Protocol: An identical methodology of measuring cell growth was employed as in FIG. 1.
as §2
We further investigated the nature of the ligand-receptor specificity of the anti-proliferative effects of GnRH receptor systems by studying our ligand panel effects upon a model cell background, i.e. SCL60 HEK293 cells stably expressing the rat Type I GnRHR. […] We attribute this greater effect of the GnRHR ligands upon the SCL60 cells to the much greater level of receptor expression in the SCL60 cells.

[5] = system: ERK1/2; test: ERK1/2 phosphorylation immunoblot in JEG-3 cells; type: cell-based, human; conditions: 100 nM, 10 minutes
[6] = system: ERK1/2; test: ERK1/2 phosphorylation immunoblot in BPH-1 cells; type: cell-based, human; conditions: FIG. 5 panel c
Text: The panel depicts a representative anti-phospho-ERK1/2 w-c lysate immunoblot of stimulated BPH-1 cell extracts. […] Each bar of the histogram represents the mean±s.e. mean of three to four experimental replicates. […] Panel c) depicts the extent of ERK1/2 activation in BPH-1 cells induced by stimulation with GnRH I, II, Ant 135-25 and Ant 135-18. […] Each bar of the histogram represents the mean± s.e. mean of three to four experimental replicates.

[7] = system: PLC-β; test: Inositol phosphate accumulation in BPH-1 cells; type: cell-based, human
Protocol: BPH-1 cells were pre-incubated with ^3H-myoinositol (1 μCi/ml) for 48 h prior to ligand stimulation (60 minutes). Ligand stimulated inositol phosphate production was measured in the presence of 10 mM LiCl. […] IP accumulation can be used as a read out/marker for Gαq activation since the activation of PLCβ is PTX-resistant.

[8] = target: T1, marmoset Type II GnRH receptor (Callithrix jacchus, UniProt Q95MG6); test: Inositol phosphate accumulation in αT4-II cells; type: cell-based; conditions: GnRH II 10 nM
T1 construct: expressed in transfected cells
T1 sequence (Q95MG6 1-380): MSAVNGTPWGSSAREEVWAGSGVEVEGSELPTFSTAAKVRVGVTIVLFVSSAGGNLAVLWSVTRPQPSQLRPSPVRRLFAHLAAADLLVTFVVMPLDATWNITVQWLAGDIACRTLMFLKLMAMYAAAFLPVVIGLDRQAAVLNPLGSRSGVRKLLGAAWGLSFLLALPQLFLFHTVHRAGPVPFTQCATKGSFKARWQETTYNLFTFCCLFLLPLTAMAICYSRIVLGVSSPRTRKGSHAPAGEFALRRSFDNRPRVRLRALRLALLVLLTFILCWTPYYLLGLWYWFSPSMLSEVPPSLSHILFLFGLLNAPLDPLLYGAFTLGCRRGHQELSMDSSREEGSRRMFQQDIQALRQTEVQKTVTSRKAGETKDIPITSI
Protocol: The histograms in panels a and b represent inositol phosphate accumulation data from HEK293 cells stably expressing the Type I GnRH receptor only (SCL60). […] In panels c and d, the liberated inositol phosphates generated were measured in the proto-gonadotrope cells (αT4) stably expressing the marmoset Type II GnRH receptor (designated αT4-II).
The ability of the four major agents under study at activating ectopically expressed Type I or Type II GnRHR were tested (FIG. 12). The classical signal transduction cascade activated by GnRHR stimulation is the Gαq-PLC-β cascade. Both Type I and II receptor can stimulate the Gαq-PLC type-G-protein and activate PLC-β which cleaves phosphatidylinositol bisphosphate (PIP2) into inositol trisphosphate (IP3), other lower inositol phosphates (IPn) and diacylglycerol (DAG). The major function of IP3 is to elevate intracellular Ca^2+ while DAG causes the activation of specific PKC (protein kinase C) isoforms.
Panels a and b of FIG. 12 depict the generation of free cytoplasmic ^3H-myo-inositols on the plasma membranes of HEK293 cells expressing the Type I GnRHR and of αT4 gonadotropes expressing the marmoset Type II GnRHR. Prior to agonist stimulation the respective cells were incubated in inositol-free growth media supplemented with 1 μCi/ml ^3H-myoinositol for 48 h. G protein coupled receptor (GPCR)-induced activation of PLC-β results in the cleavage of PIP2 (incorporating tritium ^3H) into free lower inositol phosphates (IPns).

[9] = system: human benign prostate hyperplastic (BPH-1) cells; test: Anti-proliferative effect on BPH-1 cells, viable cell count after 5 days; type: cell-based; conditions: 5 days continuous treatment, trypan blue exclusion
Protocol: as §1, with “density BPH-1” for “density JEG-3”, “(b), Ant” for “(b), antagonist”, “or Ant” for “or antagonist”, “to RPMI 1640” for “to Dulbecco's modified Eagles”, “removed form” for “removed from”, “plates by” for “plates with”
as §2
Employing an identical growth and stimulation methodology to that described in the previous paragraph and in FIG. 1 we exposed the hyperplastic cell line, BPH-1, to the same panel of GnRH ligands and antagonistic analogues (FIG. 2). Reminiscent of FIG. 1 both endogenous GnRH agonists exert a similar mode of action with respect to their dose-dependent inhibition of BPH-1 cell growth over the five day stimulation period.

Question: For `CC(=O)N[C@H](Cc1ccc2ccccc2c1)C(=O)N[C@H](Cc1ccc(Cl)cc1)C(=O)N[C@H](Cc1cccnc1)C(=O)N[C@@H](CO)C(=O)N[C@@H](Cc1ccc(O)cc1)C(=O)N[C@H](CCCNC(N)=O)C(=O)N[C@@H](CC(C)C)C(=O)N[C@@H](CCCNC(=N)N)C(=O)N1CCC[C@H]1C(=O)N[C@H](C)C(N)=O` [Cetrorelix] (Ac-[d2Nal][dPhe(4-Cl)][d3Pal]SY[dCit]LRP[dA]-NH2), which “potency at stimulating PTX-sensitive/Gαi-dependent MAPK isoform activation” value [1] is on record?
Answer: significantly less potent than Ant 135-25

Question: And the “doses required to attenuate growth of androgen-resistant tumor cells” value [2]?
Answer: considerably higher doses

Question: Which “anti-proliferative effect (viable cell number)” value [3] does the source give for “GnRH II: A second form of GnRH, identified in the mid-brain of many vertebrates ([pGlu]HWSHGWYPG-NH2; ends and bridges not checked; UniProt O43555 24-33, looked up)” here?
Answer: potent and dose-dependent anti-proliferative effect; also recorded: clear dose-response relationships for the inhibition of cellular growth

Question: And the “anti-proliferative effect (viable cell number)” value [4]?
Answer: greater anti-proliferative efficacy; also recorded: less potent than GnRH I at arresting the SCL60 cell growth

Question: And the “extent of ERK1/2 phosphorylation (activation)” value [5]?
Answer: less effective

Question: What about the “extent of ERK1/2 activation” value [6] of the same molecule?
Answer: A similar pattern to JEG-3 of ligand activation

Question: And the inositol phosphate accumulation ([7]; 60 minutes, 10 mM LiCl, doses up to 50 μM)?
Answer: poor activity; also recorded: small capacity to induce inositol phosphate accumulation

Question: And the “agonistic activity: liberated inositol phosphates at marmoset Type II GnRH receptor” value [8]?
Answer: yields an increase in free tritiated inositol phosphates; also recorded: results in a similar action to GnRH I upon the SCL60 cells

Question: What does the source list for lysophosohatidic acid [LPA]?
Answer: anti-proliferative effect (viable cell number) [3]: failed to significantly attenuate the cell growth; anti-proliferative effect (viable cell number) [9]: failed to significantly attenuate the cell growth; effect of pertussis toxin pre-incubation on induced inositol phosphate accumulation ([7]; PTX 200 ng/ml 16 h, GnRH I 50 μM): insensitive to PTX pre-incubation; also recorded: completely insensitive to the pertussis toxin
